Assay: Storage stability in a liquid vehicle comprising a semifluorinated alkane

CCCCCc1cc(O)c2c(c1)OC(C)(C)[C@@H]1CCC(C)=C[C@@H]21 [delta-9-Tetrahydrocannabinol (THC), (−)-(6aR,10aR)-6,6,9-Trimethyl-3-pentyl-6a,7,8,10a-tetrahydro-6H-benzo[c]chromen-1-ol]
Storage period when dissolved or suspended in liquid vehicle comprising semifluorinated alkane (liquid vehicle comprising at least one semifluorinated alkane): up to 2 years | Stability when air was not excluded (liquid vehicle with high content of, or essentially consisting of, F4H5 or F6H8): stable even when air was not excluded

Reference: patent US20190343793A1, “COMPOSITIONS COMPRISING A CANNABINOID RECEPTOR BINDING LIGAND” (NOVALIQ GMBH, priority 2016, published 2019)
